Assay results published in patent EP3057951B1, “METHYLENE LINKED QUINOLINYL MODULATORS OF ROR-GAMMA-T” (Janssen Pharmaceutica NV, priority 2013, dated 2015).
Where a name gives a salt, the structure may show the parent alone. Read-outs that look alike come from different tables or passages of the source.

What was measured:
[1] = target: T1, wild type human RORγt ligand binding domain (RORyt LBD) (Homo sapiens, UniProt P51449); assay: RORγt ThermoFluor assay (thermal shift, binding affinity KD)
T1 construct: His-tag (N); TurboTEV protease cleavage site (ENLYFQG) (N); made in house; host or cells: E. coli (pHIS1, modified pET vector)
T1 sequence (P51449 258-518): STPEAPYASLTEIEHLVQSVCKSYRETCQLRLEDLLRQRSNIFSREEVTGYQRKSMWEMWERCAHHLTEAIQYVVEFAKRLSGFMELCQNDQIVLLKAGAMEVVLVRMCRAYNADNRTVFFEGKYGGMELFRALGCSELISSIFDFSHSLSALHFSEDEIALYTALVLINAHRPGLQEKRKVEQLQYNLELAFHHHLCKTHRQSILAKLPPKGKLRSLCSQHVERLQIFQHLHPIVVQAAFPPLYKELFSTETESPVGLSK

[2] = target: T2, wild type human RORγt LBD (Homo sapiens, UniProt P51449); assay: RORγt (LBD) Reporter Assay (GAL4-luciferase, HEK293T cells); format: cell-based; details: for inhibition at 6 µM: HEK-293T, read-out: RORγt (LBD) Reporter Assay, % inhibition @ 6 µM, 6 µM compound concentration; for RORγt (LBD) Reporter Assay, % inhibition @ 6 µM: 6 µM compound concentration
T2 construct: expressed in transfected cells; host or cells: HEK293T
T2 sequence (P51449 258-518): T1 sequence (P51449 258-518)

[3] = HEK293T cells, value after the comma with ∼, > or < could not be included in the average

Kd [1] [nM]	IC50 ([2]; HEK293T cells) [nM]	inhibition at 6 µM ([2]; HEK293T cells) [%]	IC50 [2, 3] [nM]	inhibition at 6 µM [2] [%]	RORγt (LBD) Reporter Assay, % inhibition @ 6 µM ([2]; 6 µM) [%]	RORγt (LBD) Reporter Assay, % inhibition @ 6 µM ([2]; HEK293T cells, 6 µM) [%]	RORγt (LBD) Reporter Assay, % inhibition @ 6 µM [2] [%]	Structure (SMILES)
220	420	101						Cn1cncc1C(O)(c1ccc(C(F)(F)F)nc1)c1ccc2nc(N3CC(O)C3)c(Cc3ccc(-n4cccn4)cc3)c(Cl)c2c1 (single isomer, unassigned) [Example 134b, 1-(4-Chloro-6-{hydroxy(1-methyl-1H-imidazol-5-yl)[6-(trifluoromethyl)pyridin-3-yl]methyl}-3-[4-(1H-pyrazol-1-yl)benzyl]quinolin-2-yl)azetidin-3-ol]
8			83	99				COc1nc2ccc(C(O)(c3ccccc3)C3CCN(C(C)=O)CC3)cc2c(Cl)c1Cc1ccc(-n2cncn2)cc1 (single isomer, unassigned) [Example 18b, 1-(4-((3-(4-(1H-1,2,4-Triazol-1-yl)benzyl)-4-chloro-2-methoxyquinolin-6-yl)(hydroxy)(phenyl)methyl)piperidin-1-yl)ethanone]
2.8			24	99				COc1nc2ccc(C(O)(c3ccc(C)nc3C)c3cnnn3C)cc2c(C#N)c1Cc1ccc(C(F)(F)F)nc1 (stereo not drawn) [Example 41a, 6-((2,6-Dimethylpyridin-3-yl)(hydroxy)(1-methyl-1H-1,2,3-triazol-5-yl)methyl)-2-methoxy-3-((6-(trifluoromethyl)pyridin-3-yl)methyl)quinoline-4-carbonitrile]
17			42	105				COc1nc2ccc(C(O)(c3ccc(C#N)cc3)c3cncn3C)cc2c(Cl)c1Cc1ccc(-n2cncn2)cc1 (stereo not drawn) [Example 14a, 4-((3-(4-(1H-1,2,4-Triazol-1-yl)benzyl)4-chloro-2-methoxyquinolin-6-yl)(hydroxy)(1-methyl-1H-imidazol-5-yl)methyl)benzonitrile]
33			91		96			COc1nc2ccc(C(O)(c3ccccc3)C3CCN(C(C)=O)CC3)cc2c(Cl)c1Cc1ccc(-n2ccnc2)cc1 (stereo not drawn) [Example 16b]
7100	> 6000					5		Cc1ccc(C(O)(c2ccc3nc(N4CCC4)c(Cc4ccc(-n5cccn5)cc4)c(Cl)c3c2)c2cnnn2C)c(C)n1 (single isomer, unassigned) [Example 141c, {2-Azetidin-1-yl-4-chloro-3-[4-(1H-pyrazol-1-yl)benzyl]quinolin-6-yl}(2,6-dimethylpyridin-3-yl)(1-methyl-1H-1,2,3-triazol-5-yl)methanol]
0.19	22	99						Cc1ccc(C(O)(c2ccc3nc(N4CCC4)c(Cc4ccc(C(F)(F)F)cc4)c(Cl)c3c2)c2cnnn2C)c(C)n1 (stereo not drawn) [Example 140a, {2-Azetidin-1-yl-4-chloro-3-[4-(trifluoromethyl)benzyl]quinolin-6-yl}(2,6-dimethylpyridin-3-yl)(1-methyl-1H-1,2,3-triazol-5-yl)methanol]
11			32	104				COc1nc2ccc(C(O)(c3ccc(Cl)cc3)c3cncn3C)cc2c(C#N)c1Cc1ccc(C(F)(F)F)cc1 (racemic) [Example 55a, 6-((4-Chlorophenyl)(hydroxy)(1-methyl-1H-imidazol-5-yl)methyl)-2-methoxy-3-(4-(trifluoromethyl)benzyl)quinoline-4-carbonitrile]
12			20		97			Cn1cncc1C(O)(c1ccc2nc(C(F)(F)F)c(Cc3ccccc3)c(C#N)c2c1)c1ccccn1 (single isomer, unassigned) [Example 99c, 3-Benzyl-6-(hydroxy(1-methyl-1H-imidazol-5-yl)(pyridin-2-yl)methyl)-2-(trifluoromethyl)quinoline-4-carbonitrile]
480			790	97				COc1nc2ccc(C(O)(c3ccc(C)nc3C)c3cnnn3C)cc2c(Cl)c1Cc1ccc(-n2cncn2)cc1 (single isomer, unassigned) [Example 22b, (3-(4-(1H-1,2,4-Triazol-1-yl)benzyl)-4-chloro-2-methoxyquinolin-6-yl)(2,6-dimethylpyridin-3-yl)(1-methyl-1H-1,2,3-triazol-5-yl)methanol]
9.4	290	100						COc1nc2ccc(C(O)(c3ccc(C)nc3C)C3CN(C(=O)OC(C)(C)C)C3)cc2c(Cl)c1Cc1ccc(C(F)(F)F)cc1 (stereo not drawn) [Example 125, tert-Butyl-3-((4-chloro-2-methoxy-3-(4-(trifluoromethyl)benzyl)quinolin-6-yl)(2,6-dimethylpyridin-3-yl)(hydroxy)methyl)azetidine-1-carboxylate]
5.2	52					96		Cn1cncc1C(O)(c1ccc(C(F)(F)F)nc1)c1ccc2nc(N3CC(F)C3)c(Cc3ccc(-n4cccn4)cc3)c(Cl)c2c1 (single isomer, unassigned) [Example 147c, {4-Chloro-2-(3-fluoroazetidin-1-yl)-3-[4-(1H-pyrazol-1-yl)benzyl]quinolin-6-yl}(1-methyl-1H-imidazol-5-yl)[6-(trifluoromethyl)pyridin-3-yl]methanol]
18			~5000		65			COc1c(Cc2ccccc2)c(C(F)(F)F)nc2ccc(C(O)(c3ccc(C(F)(F)F)nc3)c3cncn3C)cc12 (single isomer, unassigned) [Example 106c, (3-Benzyl-4-methoxy-2-(trifluoromethyl)quinolin-6-yl)(1-methyl-1H-imidazol-5-yl)(6-(trifluoromethyl)pyridin-3-yl)methanol]
84	210	103						Cn1cncc1C(O)(c1ccc(C(F)(F)F)nc1)c1ccc2nc(N3CCOCC3)c(Cc3ccc(-n4cccn4)cc3)c(Cl)c2c1 (single isomer, unassigned) [Example 146b, {4-Chloro-2-morpholin-4-yl-3-[4-(1H-pyrazol-1-yl)benzyl]quinolin-6-yl}(1-methyl-1H-imidazol-5-yl)[6-(trifluoromethyl)pyridin-3-yl]methanol]
0.03			46		97			CCc1nc2ccc(C(O)(c3ccc(C)nc3C)c3cnnn3C)cc2c(Cl)c1Cc1ccc(C(F)(F)F)cc1 (single isomer, unassigned) [Example 23c, (4-Chloro-2-ethyl-3-(4-(trifluoromethyl)benzyl)quinolin-6-yl)(2,6-dimethylpyridin-3-yl)(1-methyl-1H-1,2,3-triazol-5-yl)methanol]
49			560				97	CC(=O)N1CCC(C(O)(c2cc(C)c3nc(C#N)c(Cc4ccc(-n5cccn5)cc4)c(C#N)c3c2)c2cncn2C)CC1 (single isomer, unassigned) [Example 81c, 3-(4-(1H-Pyrazol-1-yl)benzyl)-6-((1-acetylpiperidin-4-yl)(hydroxy)(1-methyl-1H-imidazol-5-yl)methyl)-8-methylquinoline-2,4-dicarbonitrile]
2.2			2.6		90			COc1nc2ccc(C(O)(c3cnnn3C)c3cnc(C)n3C)cc2c(C#N)c1Cc1ccc(F)cc1 (single isomer, unassigned) [Example 66c, 6-((1,2-Dimethyl-1H-imidazol-5-yl)(hydroxy)(1-methyl-1H-1,2,3-triazol-5-yl)methyl)-3-(4-fluorobenzyl)-2-methoxyquinoline4-carbonitrile]
23	77					95		Cn1cncc1C(O)(c1ccc(C(F)(F)F)nc1)c1ccc2nc(N3CC(F)(F)C3)c(Cc3ccc(-n4cccn4)cc3)c(Cl)c2c1 (single isomer, unassigned) [Example 135c, {4-Chloro-2-(3,3-difluoroazetidin-1-yl)-3-[4-(1H-pyrazol-1-yl)benzyl]quinolin-6-yl}(1-methyl-1H-imidazol-5-yl)[6-(trifluoromethyl)pyridin-3-yl]methanol]
460	680	105						COc1nc2ccc(C(O)(c3ccc(F)cc3)c3cncn3C)cc2c(Cl)c1Cc1ccc(-n2cccn2)cc1 (single isomer, unassigned) [Example 160b, (3-(4-(1H-Pyrazol-1-yl)benzyl)-4-chloro-2-methoxyquinolin-6-yl)(4-fluorophenyl)(1-methyl-1H-imidazol-5-yl)methanol]
5.6			> 6000	38				Cn1cncc1C(O)(c1ccc(C(F)(F)F)nc1)c1ccc2nc(C(F)(F)F)c(Cc3ccccc3)c(Cl)c2c1 (stereo not drawn) [Example 105, (3-Benzyl-4-chloro-2-(trifluoromethyl)quinolin-6-yl)(1-methyl-1H-imidazol-5-yl)(6-(trifluoromethyl)pyridin-3-yl)methanol•TFA]
3			15		97			COc1nc2ccc(C(O)(c3ccc(C)nc3C)C3CN(C(C)=O)C3)cc2c(Cl)c1Cc1ccc(C(F)(F)F)cc1 (single isomer, unassigned) [Example 87c, 1-(3-((4-Chloro-2-methoxy-3-(4-(trifluoromethyl)benzyl)quinolin-6-yl)(2,6-dimethylpyridin-3-yl)(hydroxy)methyl)azetidin-1-yl)ethanone]
